For this assay, the target named is T1, 5-epi-aristolochene synthase (TEAS) (Nicotiana tabacum, UniProt Q40577).
T1 sequence (Q40577 1-548): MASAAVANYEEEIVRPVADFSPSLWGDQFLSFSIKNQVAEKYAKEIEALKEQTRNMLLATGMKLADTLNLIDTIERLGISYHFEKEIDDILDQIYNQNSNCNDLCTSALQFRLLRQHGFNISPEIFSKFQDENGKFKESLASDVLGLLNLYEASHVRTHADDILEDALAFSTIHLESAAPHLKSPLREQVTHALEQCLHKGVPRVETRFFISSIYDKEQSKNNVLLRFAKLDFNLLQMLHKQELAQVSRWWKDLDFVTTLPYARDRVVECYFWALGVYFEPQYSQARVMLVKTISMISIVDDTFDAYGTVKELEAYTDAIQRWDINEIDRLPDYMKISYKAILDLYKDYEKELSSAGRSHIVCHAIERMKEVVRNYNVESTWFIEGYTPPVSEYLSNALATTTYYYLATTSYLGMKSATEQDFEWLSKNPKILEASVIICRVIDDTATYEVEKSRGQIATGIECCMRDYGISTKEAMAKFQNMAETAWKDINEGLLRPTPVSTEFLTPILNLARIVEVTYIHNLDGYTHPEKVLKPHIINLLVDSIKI
The experiment in a line: crystal structure. The assay is classed as biochemical.

The results in this text go back to paper PMC4570970 (ACS chemical biology, 2015).

Turning to `C/C(=C\COP(=O)(O)OP(=O)(O)O)CC/C=C(\C)CNc1ccccc1` [compound 4, AGPP], the affinity, expressed as Ki, was 380 nM.

As a reminder, the Ki is the equilibrium dissociation constant of an inhibitor or competing ligand from its target.
